Test results: ChEMBL document CHEMBL5550112, “Development of a fluorescent ligand that can illuminate nuclear G-quadruplexes and modulate oncogene expression” (Bioorg Med Chem, 2024)
Calls of active or inactive are those of the source. The calls are words filed in the database; no cut-off is given here.

Columns and labels:
Quadruplex DNA [1] = assay: Binding affinity to G-quadruplex DNA in human MDA-MB-231 cells at 2 uM incubated for 30 mins by Hoechst 33342 staining based confocal microscopic analysis; type: cell-based
Quadruplex DNA [2] = assay: Binding affinity to Parallel VAV1 G-quadruplex DNA (unknown origin) assessed as increase in fluorescence intensity at 5 uM by fluorescence spectrophotometric analysis; type: nucleic-acid assay
Quadruplex DNA [3] = assay: Binding affinity to Parallel c-KIT1 G-quadruplex DNA (unknown origin) assessed as increase in fluorescence intensity at 5 uM by fluorescence spectrophotometric analysis; type: nucleic-acid assay
Quadruplex DNA [4] = assay: Binding affinity to Antiparallel HRAS G-quadruplex DNA (unknown origin) assessed as increase in fluorescence intensity at 5 uM by fluorescence spectrophotometric analysis; type: nucleic-acid assay
Quadruplex DNA [5] = assay: Binding affinity to Antiparallel Bm G-quadruplex DNA (unknown origin) assessed as increase in fluorescence intensity at 5 uM by fluorescence spectrophotometric analysis; type: nucleic-acid assay
Quadruplex DNA [6] = assay: Binding affinity to Antiparallel TBA G-quadruplex DNA (unknown origin) assessed as increase in fluorescence intensity at 5 uM by fluorescence spectrophotometric analysis; type: nucleic-acid assay
Calf thymus DNA = assay: Binding affinity to calf thymus DNA (unknown origin) assessed as increase in fluorescence intensity at 5 uM by fluorescence spectrophotometric analysis; conditions: Bos taurus
Albumin = Albumin (Bos taurus, UniProt P02769); assay: Binding affinity to bovine serum albumin assessed as increase in fluorescence intensity at 5 uM by fluorescence spectrophotometric analysis; type: cell-free; conditions: cattle
Quadruplex DNA [7] = assay: Binding affinity to c-MYC G-quadruplex DNA (unknown origin) assessed as decrease in absorption band by measuring red shift at 5 uM by absorption spectra analysis; type: nucleic-acid assay
Quadruplex DNA [8] = assay: Binding affinity to KRAS G-quadruplex DNA (unknown origin) assessed as decrease in absorption band by measuring red shift at 5 uM by absorption spectra analysis; type: nucleic-acid assay
DNA = assay: Binding affinity to Duplex DNA (unknown origin) assessed as hypochromic red shift at 5 uM by absorption spectra analysis; type: nucleic-acid assay
Quadruplex DNA [9] = assay: Binding affinity to c-MYC G-quadruplex DNA (unknown origin) assessed as increase in fluorescence by measuring red shift at 5 uM by fluorescence titration spectra analysis; type: nucleic-acid assay
Quadruplex DNA [10] = assay: Binding affinity to c-MYC G-quadruplex DNA (unknown origin) assessed as dissociation constant by fluorescence spectrophotometric analysis; type: nucleic-acid assay
Quadruplex DNA [11] = assay: Binding affinity to KRAS G-quadruplex DNA (unknown origin) assessed as dissociation constant by fluorescence spectrophotometric analysis; type: nucleic-acid assay
Quadruplex DNA [12] = assay: Binding affinity to c-MYC G-quadruplex DNA (unknown origin) assessed as fluorescence quantum yield by fluorescence spectrophotometric analysis; type: nucleic-acid assay
Quadruplex DNA [13] = assay: Binding affinity to KRAS G-quadruplex DNA (unknown origin) assessed as fluorescence quantum yield by fluorescence spectrophotometric analysis; type: nucleic-acid assay
Quadruplex DNA [14] = assay: Stabilization of FAM/TAMRA-labelled c-MYC G-quadruplex DNA (unknown origin) assessed as change in melting temperature in presence of duplex DNA by FRET assay; type: nucleic-acid assay
Quadruplex DNA [15] = assay: Stabilization of FAM/TAMRA-labelled KRAS G-quadruplex DNA (unknown origin) assessed as change in melting temperature in presence of duplex DNA by FRET assay; type: nucleic-acid assay
Quadruplex DNA [16] = assay: Binding affinity to 5'-Cy5-labelled c-MYC G-quadruplex DNA (unknown origin) assessed as decrease in Cy5 fluorescence upto 5 uM by fluorescence quenching analysis; type: nucleic-acid assay
Quadruplex DNA [17] = assay: Binding affinity to 5'-Cy5-labelled c-MYC G-quadruplex DNA (unknown origin) assessed as dissociation constant by fluorescence quenching analysis; type: nucleic-acid assay
Quadruplex DNA [18] = assay: Binding affinity to c-MYC G-quadruplex DNA (unknown origin) assessed as imino proton signal by NMR spectral analysis; type: nucleic-acid assay
Quadruplex DNA [19] = assay: Binding affinity to G-quadruplex DNA in human MDA-MB-231 cells assessed as increase in fluorescence at 2 uM incubated for 30 mins by RNase A digestion based confocal microscopic analysis; type: cell-based
Quadruplex DNA [20] = assay: Displacement of […] from G-quadruplex DNA in human MDA-MB-231 cells assessed as increase in fluorescence at 2 uM preincubated for 30 mins followed by PDS addition and measured after 20 mins by Hoechst 33342 staining based confocal microscopic analysis; type: cell-based; conditions: time 50.0 min
HEK-293T = assay: Effect on c-MYC gene expression in human HEK293T cells co-transfected with c-Myc promoter luciferase reporter assessed as decrease in c-MYC expression by measuring reduction in firefly luciferase expression at 10 to 20 uM incubated for 24 hrs by firefly luciferase based microplate analysis; type: functional, cell-based; conditions: dose 10-20 µM
MDA-MB-231 [21] = assay: Induction of apoptosis in human MDA-MB-231 cells assessed as downregulation of PARP protein expression at 10 to 20 uM incubated for 24 hrs by Western blot analysis; type: functional, cell-based; conditions: dose 10-20 µM
MDA-MB-231 [22] = assay: Induction of cell cycle arrest in human MDA-MB-231 cells assessed as accumulation of cells at sub-G1 phase at 10 uM incubated for 24 hrs by flow cytometry (reference value: 0.6 %); type: functional
MDA-MB-231 [23] = assay: Induction of cell cycle arrest in human MDA-MB-231 cells assessed as accumulation of cells at sub-G1 phase at 20 uM incubated for 24 hrs by flow cytometry (reference value: 0.6 %); type: functional
MDA-MB-231 [24] = assay: Induction of cell cycle arrest in human MDA-MB-231 cells assessed as accumulation of cells at G2-M phase at 10 uM incubated for 24 hrs by flow cytometry (reference value: 16.8 %); type: functional
MDA-MB-231 [25] = assay: Induction of cell cycle arrest in human MDA-MB-231 cells assessed as accumulation of cells at G2-M phase at 15 uM incubated for 24 hrs by flow cytometry (reference value: 16.8 %); type: functional
MDA-MB-231 [26] = assay: Inhibition of cell migration in human MDA-MB-231 cells at 10 to 20 uM incubated for 24 hrs by reverse-phase microscopy based scratch wound healing assay; type: functional; conditions: dose 10-20 µM
MDA-MB-231 [27] = assay: Inhibition of colony formation in human MDA-MB-231 cells at 1.5 to 6 uM incubated for 3 days by crystal violet staining based analysis; type: functional, cell-based; conditions: dose 1.5-6 µM, time 3.0 day

Chain of Albumin (P02769 whole entry): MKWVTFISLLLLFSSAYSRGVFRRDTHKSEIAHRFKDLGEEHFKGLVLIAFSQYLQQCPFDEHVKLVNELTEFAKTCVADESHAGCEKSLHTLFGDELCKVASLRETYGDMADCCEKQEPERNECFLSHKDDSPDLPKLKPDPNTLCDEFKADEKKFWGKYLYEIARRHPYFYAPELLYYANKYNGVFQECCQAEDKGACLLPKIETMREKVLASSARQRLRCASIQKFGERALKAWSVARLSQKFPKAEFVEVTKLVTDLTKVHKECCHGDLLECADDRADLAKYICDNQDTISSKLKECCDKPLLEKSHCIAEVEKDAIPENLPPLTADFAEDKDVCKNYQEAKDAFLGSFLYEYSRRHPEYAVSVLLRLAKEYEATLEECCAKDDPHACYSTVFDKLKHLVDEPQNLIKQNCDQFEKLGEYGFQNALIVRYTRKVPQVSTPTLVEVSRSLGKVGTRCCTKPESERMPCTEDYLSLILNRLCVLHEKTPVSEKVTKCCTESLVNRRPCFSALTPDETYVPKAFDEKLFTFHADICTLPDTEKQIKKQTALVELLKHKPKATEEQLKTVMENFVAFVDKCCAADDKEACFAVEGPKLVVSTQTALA

## CCn1c2ccccc2c2cc(/C=C/c3sc4ccccc4[n+]3C)ccc21.[I-]
Quadruplex DNA [1]
  Activity: Active
Quadruplex DNA [2]
  Activity: Active
Quadruplex DNA [3]
  Activity: Active
Quadruplex DNA [4]
  Activity: Active
Quadruplex DNA [5]
  Activity: Active
Quadruplex DNA [6]
  Activity: Active
Calf thymus DNA
  Activity: Active
Albumin
  Activity: Not Active
Quadruplex DNA [7]
  Activity: Active
Quadruplex DNA [8]
  Activity: Active
DNA
  Activity: Active
Quadruplex DNA [9]
  Activity: Active
Quadruplex DNA [10]
  Kd: 700 nM
Quadruplex DNA [11]
  Kd: 500 nM
Quadruplex DNA [12]
  Activity: 0.3
Quadruplex DNA [13]
  Activity: 0.19
Quadruplex DNA [14]
  ΔTm: 8.1 °C
Quadruplex DNA [15]
  ΔTm: 14 °C
Quadruplex DNA [16]
  Activity: Active
Quadruplex DNA [17]
  Kd: 1100 nM
Quadruplex DNA [18]
  Activity: Active
Quadruplex DNA [19]
  Activity: Active
Quadruplex DNA [20]
  Activity: inactive
HEK-293T
  Activity: Active
MDA-MB-231 [21]
  Activity: Active
MDA-MB-231 [22]
  Activity: 3%
MDA-MB-231 [23]
  Activity: 56.7%
MDA-MB-231 [24]
  Activity: 16%
MDA-MB-231 [25]
  Activity: 10.3%
MDA-MB-231 [26]
  inhibition: Active
MDA-MB-231 [27]
  inhibition: Active
